Measured values from patent US20260327204A1, “DEGRADERS OF CYCLIN-DEPENDENT KINASE 12/13, COMPOSITIONS, AND USES THEREOF” (ZHEJIANG UNIVERSITY, priority 2023, published 2026).

Key:
[1] = test system: serine 2 in the C-terminal domain of RNA polymerase II (CTD-pSer2); assay: Phosphorylation of serine 2 in the C-terminal domain of RNA polymerase II, Western blot; assay type: cell-based; settings: MDA-MB-231, 24 h, concentration gradient
Description: Protein Western blot was used to determine the degradation of CDK12/13 protein in colorectal cancer cells HCT-116, breast cancer cells MDA-MB-231, and leukemia cells Jurkat. The two compounds with the best degradation effects were further validated for their ability to degrade CDK12/13 protein in MDA-MB-231 cells using a concentration gradient. The effect of the compounds on the phosphorylation of serine 2 in the C-terminal domain of RNA polymerase II (CTD-pSer2) was also measured.
(§1) (3) Compound treatment: The 50 mM compound stock solution was diluted with cell culture medium to a final concentration of 0.01 μM-3 μM. Cells were incubated in a 37 °C incubator with 5% CO2 for 3 h-48 h. The DMSO group served as the negative control.

CDK12 [2] = target: T1, CDK12 (Homo sapiens, UniProt Q9NYV4); assay: Western blot degradation of CDK12 (Example 2); assay type: cell-based; set-up: degradation of CDK12/13 protein in leukemia cells KASUMI-1, MV4-11, and Jurkat; endogenous in cells; settings: DC50 classes; cell line not given; read-out: CDK12 degradation Activity
T1 sequence (Q9NYV4 whole entry): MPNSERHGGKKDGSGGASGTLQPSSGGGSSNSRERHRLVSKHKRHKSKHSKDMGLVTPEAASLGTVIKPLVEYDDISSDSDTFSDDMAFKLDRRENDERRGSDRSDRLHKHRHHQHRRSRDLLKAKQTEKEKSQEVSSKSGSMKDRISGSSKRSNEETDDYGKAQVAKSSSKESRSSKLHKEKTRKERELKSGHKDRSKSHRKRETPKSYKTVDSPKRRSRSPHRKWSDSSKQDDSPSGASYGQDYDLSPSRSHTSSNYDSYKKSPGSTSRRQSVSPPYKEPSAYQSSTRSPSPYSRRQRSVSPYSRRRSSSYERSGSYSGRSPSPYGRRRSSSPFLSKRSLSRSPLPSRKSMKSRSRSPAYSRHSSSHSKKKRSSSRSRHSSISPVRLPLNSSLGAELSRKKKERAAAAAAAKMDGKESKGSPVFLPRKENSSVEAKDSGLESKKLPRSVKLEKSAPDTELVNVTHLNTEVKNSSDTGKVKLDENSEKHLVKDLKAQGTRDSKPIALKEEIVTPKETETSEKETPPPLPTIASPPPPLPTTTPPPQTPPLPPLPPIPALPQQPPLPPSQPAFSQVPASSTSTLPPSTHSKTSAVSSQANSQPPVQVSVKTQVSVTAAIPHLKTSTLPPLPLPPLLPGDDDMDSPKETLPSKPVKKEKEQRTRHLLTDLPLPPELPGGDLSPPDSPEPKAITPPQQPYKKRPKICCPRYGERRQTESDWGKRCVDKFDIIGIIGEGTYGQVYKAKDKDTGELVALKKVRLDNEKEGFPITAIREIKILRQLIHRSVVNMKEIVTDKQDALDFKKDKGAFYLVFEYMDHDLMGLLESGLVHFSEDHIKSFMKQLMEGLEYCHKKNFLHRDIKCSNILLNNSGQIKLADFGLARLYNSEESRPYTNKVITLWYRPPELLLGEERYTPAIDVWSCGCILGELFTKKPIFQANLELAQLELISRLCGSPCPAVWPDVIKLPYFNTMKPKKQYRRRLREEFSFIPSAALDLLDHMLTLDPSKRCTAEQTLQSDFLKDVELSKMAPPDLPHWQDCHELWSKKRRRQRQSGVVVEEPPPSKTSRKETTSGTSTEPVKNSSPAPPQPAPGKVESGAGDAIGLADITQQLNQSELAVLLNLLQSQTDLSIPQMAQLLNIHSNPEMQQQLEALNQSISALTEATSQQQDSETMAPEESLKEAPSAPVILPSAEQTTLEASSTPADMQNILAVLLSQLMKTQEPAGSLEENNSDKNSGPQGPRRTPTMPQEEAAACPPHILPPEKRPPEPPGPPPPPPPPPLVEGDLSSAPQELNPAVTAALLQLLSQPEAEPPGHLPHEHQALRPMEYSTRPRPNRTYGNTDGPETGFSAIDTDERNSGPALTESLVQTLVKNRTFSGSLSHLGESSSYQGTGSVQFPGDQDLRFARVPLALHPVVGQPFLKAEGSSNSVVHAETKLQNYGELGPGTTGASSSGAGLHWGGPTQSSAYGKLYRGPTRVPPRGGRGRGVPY
T1 sequence (O75909 whole entry partner): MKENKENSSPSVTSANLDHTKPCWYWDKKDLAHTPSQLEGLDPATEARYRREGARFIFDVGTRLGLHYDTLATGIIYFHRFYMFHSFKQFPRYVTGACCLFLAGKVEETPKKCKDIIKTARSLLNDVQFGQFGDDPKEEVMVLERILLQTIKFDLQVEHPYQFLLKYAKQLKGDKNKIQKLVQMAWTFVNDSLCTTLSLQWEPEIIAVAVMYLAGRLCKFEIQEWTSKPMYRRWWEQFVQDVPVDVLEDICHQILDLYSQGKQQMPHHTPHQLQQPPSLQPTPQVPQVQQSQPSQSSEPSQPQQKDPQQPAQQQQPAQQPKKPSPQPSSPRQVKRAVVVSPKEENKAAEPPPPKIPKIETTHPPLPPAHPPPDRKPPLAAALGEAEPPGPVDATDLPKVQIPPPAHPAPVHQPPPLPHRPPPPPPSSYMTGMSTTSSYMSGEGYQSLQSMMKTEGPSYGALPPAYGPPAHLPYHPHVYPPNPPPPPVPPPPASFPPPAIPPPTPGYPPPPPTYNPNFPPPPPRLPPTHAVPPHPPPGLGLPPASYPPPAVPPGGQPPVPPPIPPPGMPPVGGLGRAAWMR
Method in brief: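 Leukemia lines KASUMI-1, MV4-11, Jurkat, plus MDA-MB-231 for a concentration series, treated at 0.01–3 μM for 3–48 h at 37 °C against DMSO control. Lysates in 4% SDS; CDK12/13 band intensity normalized to β-Actin or GAPDH to give degradation rate.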

CDK13 [3] = target: T2, CDK13 (Homo sapiens, UniProt Q14004); assay: Western blot degradation of CDK13 (Example 2); assay type: cell-based; set-up: degradation of CDK12/13 protein in leukemia cells KASUMI-1, MV4-11, and Jurkat; endogenous in cells; settings: DC50 classes; cell line not given; read-out: CDK13 degradation Activity
T2 sequence (Q14004 whole entry): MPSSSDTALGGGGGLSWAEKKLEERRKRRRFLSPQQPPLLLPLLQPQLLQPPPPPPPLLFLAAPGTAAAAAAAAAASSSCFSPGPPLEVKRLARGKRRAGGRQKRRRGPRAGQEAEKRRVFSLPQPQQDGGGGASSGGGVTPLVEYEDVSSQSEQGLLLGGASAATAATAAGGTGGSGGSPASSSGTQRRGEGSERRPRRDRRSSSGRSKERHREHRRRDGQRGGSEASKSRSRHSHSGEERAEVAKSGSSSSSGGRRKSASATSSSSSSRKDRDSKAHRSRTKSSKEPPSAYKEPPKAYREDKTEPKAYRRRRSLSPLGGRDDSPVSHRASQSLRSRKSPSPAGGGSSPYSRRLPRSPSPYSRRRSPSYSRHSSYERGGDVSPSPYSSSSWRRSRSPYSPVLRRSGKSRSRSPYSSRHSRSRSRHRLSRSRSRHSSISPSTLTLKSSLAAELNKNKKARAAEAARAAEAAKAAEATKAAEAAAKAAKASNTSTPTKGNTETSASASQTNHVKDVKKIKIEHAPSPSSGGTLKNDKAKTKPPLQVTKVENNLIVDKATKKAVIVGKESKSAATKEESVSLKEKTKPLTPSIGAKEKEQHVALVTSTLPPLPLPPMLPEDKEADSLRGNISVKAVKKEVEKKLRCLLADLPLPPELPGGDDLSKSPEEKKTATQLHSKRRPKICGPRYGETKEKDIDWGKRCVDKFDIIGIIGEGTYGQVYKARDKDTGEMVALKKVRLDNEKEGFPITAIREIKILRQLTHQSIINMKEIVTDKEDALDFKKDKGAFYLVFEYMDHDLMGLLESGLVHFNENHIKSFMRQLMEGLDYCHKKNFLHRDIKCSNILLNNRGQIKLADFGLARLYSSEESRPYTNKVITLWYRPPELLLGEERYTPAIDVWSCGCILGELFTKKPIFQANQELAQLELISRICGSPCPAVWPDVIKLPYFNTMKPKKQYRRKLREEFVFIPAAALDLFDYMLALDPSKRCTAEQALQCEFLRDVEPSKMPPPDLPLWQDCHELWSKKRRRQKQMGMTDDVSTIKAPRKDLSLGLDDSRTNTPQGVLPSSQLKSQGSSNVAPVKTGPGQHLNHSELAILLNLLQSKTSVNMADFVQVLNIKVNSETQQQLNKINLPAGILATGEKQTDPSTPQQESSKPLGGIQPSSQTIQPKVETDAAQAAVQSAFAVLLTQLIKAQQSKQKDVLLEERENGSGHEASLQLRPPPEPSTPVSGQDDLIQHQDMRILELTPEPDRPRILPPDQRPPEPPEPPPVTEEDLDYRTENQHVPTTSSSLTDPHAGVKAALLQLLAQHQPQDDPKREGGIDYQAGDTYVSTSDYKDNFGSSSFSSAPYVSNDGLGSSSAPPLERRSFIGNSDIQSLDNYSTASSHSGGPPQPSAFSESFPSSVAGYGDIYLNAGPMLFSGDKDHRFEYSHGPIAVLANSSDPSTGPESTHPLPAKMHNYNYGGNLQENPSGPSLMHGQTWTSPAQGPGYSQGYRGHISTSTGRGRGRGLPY
T2 sequence (O75909 whole entry partner): as the sequence (O75909 whole entry partner) above

CCNK = assay: Reversal of CCNK degradation by proteasome inhibitor MG132, Western blot; assay type: cell-based; settings: MDA-MB-231, 24 h treatment, MG132 added 12 h before sample collection
Description: (§2) • Cell lines: HCT-116, Jurkat, or MDA-MB-231 • Culture medium: DMEM/RIPM-1640+10% Hyclone serum • Compound dissolution method: The compounds (small molecule conjugates as shown in Formulae 101-147, MG132) were dissolved in DMSO to prepare a 50 mM stock solution and then diluted to the corresponding concentrations.
as §1
In the figures, CDK12, CDK13, and CCNK are the target proteins under study, and β-Actin and GAPDH are the internal reference proteins. Internal reference proteins are used to indicate the total protein amount in each experimental group for quantitative analysis.

hERG channel = target: T3, hERG channel (Homo sapiens, UniProt Q12809); assay: Manual patch-clamp of hERG channel currents stably expressed in HEK293 cells; assay type: cell-based; settings: 0.3 μM-30 μM, HEK293, room temperature
T3 construct: manual patch clamp of tail current
T3 sequence (Q12809 whole entry): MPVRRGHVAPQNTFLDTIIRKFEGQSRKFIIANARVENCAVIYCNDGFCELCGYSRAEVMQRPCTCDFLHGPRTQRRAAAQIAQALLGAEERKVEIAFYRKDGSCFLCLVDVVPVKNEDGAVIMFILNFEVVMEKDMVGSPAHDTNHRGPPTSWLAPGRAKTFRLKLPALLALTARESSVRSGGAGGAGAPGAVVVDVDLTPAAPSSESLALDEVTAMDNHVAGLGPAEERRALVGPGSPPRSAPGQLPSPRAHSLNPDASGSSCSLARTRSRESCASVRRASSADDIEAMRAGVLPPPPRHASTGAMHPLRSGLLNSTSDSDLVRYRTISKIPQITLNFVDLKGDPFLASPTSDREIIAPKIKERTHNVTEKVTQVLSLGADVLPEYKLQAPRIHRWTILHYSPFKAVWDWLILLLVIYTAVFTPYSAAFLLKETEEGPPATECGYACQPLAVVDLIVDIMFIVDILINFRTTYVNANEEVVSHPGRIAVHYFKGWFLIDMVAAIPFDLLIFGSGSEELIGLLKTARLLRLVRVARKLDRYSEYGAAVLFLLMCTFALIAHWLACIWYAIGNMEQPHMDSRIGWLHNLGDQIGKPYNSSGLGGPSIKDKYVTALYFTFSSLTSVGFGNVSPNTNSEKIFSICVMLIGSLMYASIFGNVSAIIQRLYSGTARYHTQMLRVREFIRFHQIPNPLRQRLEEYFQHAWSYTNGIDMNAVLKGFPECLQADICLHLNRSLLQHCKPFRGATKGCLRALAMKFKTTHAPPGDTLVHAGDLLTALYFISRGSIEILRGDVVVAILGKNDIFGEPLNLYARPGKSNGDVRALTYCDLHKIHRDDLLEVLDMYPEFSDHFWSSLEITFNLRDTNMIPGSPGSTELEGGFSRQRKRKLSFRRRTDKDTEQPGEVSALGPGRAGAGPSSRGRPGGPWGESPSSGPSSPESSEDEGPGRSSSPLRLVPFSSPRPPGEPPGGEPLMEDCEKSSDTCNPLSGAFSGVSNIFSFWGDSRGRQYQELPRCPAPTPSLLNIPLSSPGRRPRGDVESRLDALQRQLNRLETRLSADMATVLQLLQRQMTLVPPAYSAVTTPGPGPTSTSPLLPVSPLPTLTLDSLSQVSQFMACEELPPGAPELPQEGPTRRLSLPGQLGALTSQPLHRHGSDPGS
Description: III. Manual Patch-Clamp Detection of the Effect of Compounds on hERG Channel Currents Stably Expressed in HEK293 Cells
A 30 mM stock solution of compound 147 was prepared in DMSO. The stock solution was serially diluted with DMSO to prepare secondary stock solutions of 10 mM, 3 mM, 1 mM, and 0.3 mM. 10 μL of the secondary stock solution was diluted in 10 mL of extracellular solution to prepare final concentrations of 30 μM, […], 3 μM, 1 μM, and 0.3 μM for electrophysiological detection. A 10 mM stock solution of the positive control, cisapride, was prepared in DMSO. The stock solution was serially diluted with DMSO to prepare secondary stock solutions of 1000 μM, 100 μM, 10 μM, 1 μM, and 0.1 μM. 10 μL of the secondary stock solution was diluted in 10 mL of extracellular solution to prepare final concentrations of 1000 nM, 100 nM, 10 nM, 1 nM, and 0.1 nM for electrophysiological detection. […]
d. […] The current was recorded once every 15 s.
e. The hERG potassium channel current was recorded at room temperature before drug addition. […]
The original data hERG tail current peak values were extracted from the PatchMaster software. The current inhibition rate was calculated using the following formula:
The mean and standard error were calculated for each concentration. […]

[4] = In vivo pharmacokinetics in mice; settings: mouse, plasma, ip, 30 mg/kg, intraperitoneal
CDK12 [5] = target: T1, CDK12; assay: Reversal of CDK12 degradation by proteasome inhibitor MG132, Western blot; assay type: cell-based; set-up: endogenous in cells; settings: MDA-MB-231, 24 h treatment, MG132 added 12 h before sample collection
Description: as §2, §1

CDK13 [6] = target: T2, CDK13; assay: Reversal of CDK13 degradation by proteasome inhibitor MG132, Western blot; assay type: cell-based; set-up: endogenous in cells; settings: MDA-MB-231, 24 h treatment, MG132 added 12 h before sample collection
Description: as §2, §1

CDK12 [7] = target: T1, CDK12; assay: Western blot degradation of CDK12 (Example 3); assay type: cell-based; set-up: degradation of CDK12/13 protein in leukemia cells KASUMI-1, MV4-11, and Jurkat; endogenous in cells
CDK13 [8] = target: T2, CDK13; assay: Western blot degradation of CDK13 (Example 3); assay type: cell-based; set-up: degradation of CDK12/13 protein in leukemia cells KASUMI-1, MV4-11, and Jurkat; endogenous in cells
[9] = test system: tumor cells MDA-MB-231, MV4-11, and KASUMI-1 and normal cells L-02 and HK-2; assay: Survival of tumor and normal cells (CCK8 / SRB); assay type: cell-based; settings: 72 h, concentration gradient, FIG. 10
Description: The proliferation inhibition of compounds on leukemia cell lines MV4-11 and KASUMI-1 was determined using the CCK8 assay, while the inhibition on solid tumor cell lines MDA-MB-231 was determined using the Sulforhodamine B (SRB) assay.
CCK8 Assay: First, MV4-11 and KASUMI-1 cells were seeded in a 96-well plate at a density of 5,000 cells per well. Then, a concentration gradient (0.03 μM-10 μM) of the compounds was administered for 72 h, with DMSO solvent serving as the negative control. At the end of the treatment, 10 μL of CCK8 reagent was added to each well. The plate was incubated for 4 hours at 37 °C in the dark. After mixing, the absorbance value was measured at 450 nm.
SRB Assay: First, MDA-MB-231, L-02, and HK-2 cells were seeded in a 96-well plate at a density of 3,000 cells per well. After 8-12 h of cell adhesion, a concentration gradient (62.5 nM-10 μM) of the compounds was administered for 72 h, with DMSO solvent serving as the negative control. At the end of the treatment, the cells were washed once with 70 μL of PBS, then fixed with 70 μL of 10% trichloroacetic acid at 4 °C for 1 h. After rinsing with tap water and drying in an oven, 70 μL of SRB staining solution was added to each well for 20 min at room temperature. […] Finally, 150 μL of 10 mM Tris-base dissolving solution was added, and the plate was shaken for 15 min before the absorbance value was measured at 540 nm.

With N#Cc1ccc(NC2CCC(N(C(=O)NCc3ccccc3)c3ccc(-c4ccc(=O)n(CCOCCOCCNc5cccc6c5C(=O)N(C5CCC(=O)NC5=O)C6=O)c4)cc3)CC2)nc1 (centres unmarked) [Formula 47] the “phosphorylation of serine 2 in the C-terminal domain of RNA polymerase II (CTD-pSer2)” value [1] was “can dose-dependently downregulate the phosphorylation of serine 2”, the DC50 (CDK12 [2]) was 500 to 1000 nM and the DC50 (CDK13 [3]) was 1000 to 3000 nM.
For CC(=O)N(c1ccc(-c2ccc(N3CCN(CC(=O)N[C@H](C(=O)N4C[C@H](O)C[C@H]4C(=O)N[C@@H](C)c4ccc(-c5scnc5C)cc4)C(C)(C)C)CC3)nc2)cc1)[C@H]1CC[C@H](Nc2ncc3ccccc3n2)CC1 [Formula 147, (2S,4R)-1-((S)-3,3-dimethyl-2-(2-(4-(5-(4-(N-((1R,4R)-4-(quinazolin-2-ylamino)cyclohexyl)acetamido)phenyl)pyridin-2-yl)piperazin-1-yl)acetamido)butanoyl)-4-hydroxy-N—((S)-1-(4-(4-methylthiazol-5-yl)phenyl)ethyl)pyrrolidine-2-carboxamide], the “reversal of CCNK degradation by MG132” value (CCNK) was “can reverse the degradation of CDK12/13 and CCNK”, the “inhibitory effect on the hERG channel” value (hERG channel) was “weak or no inhibitory effect on the hERG channel” and the half-life [4] was 2.58 h. The “reversal of CDK12 degradation by MG132” value (CDK12 [5]) was “can reverse the degradation of CDK12/13 and CCNK”, the “reversal of CDK13 degradation by MG132” value (CDK13 [6]) was “can reverse the degradation of CDK12/13 and CCNK” and the DC50 (CDK12 [7]; DC50 classes, cell line not given, read-out: CDK12 degradation Activity) was under 100 nM. The DC50 (CDK12 [7]; HCT116, colorectal cancer cells, read-out: CDK12 DC50) was 13 nM, the DC50 (CDK12 [7]; KASUMI-1, leukemia cells, read-out: CDK12 DC50) was 17 nM and the DC50 (CDK12 [7]; MDA-MB-231, breast cancer cells, read-out: CDK12 DC50) was 15 nM. The DC50 (CDK13 [8]; DC50 classes, cell line not given, read-out: CDK13 degradation Activity) was under 100 nM, the DC50 (CDK13 [8]; HCT116, colorectal cancer cells, read-out: CDK13 DC50) was 15 nM and the DC50 (CDK13 [8]; KASUMI-1, leukemia cells, read-out: CDK13 DC50) was 10 nM. The DC50 (CDK13 [8]; MDA-MB-231, breast cancer cells, read-out: CDK13 DC50) was 9 nM.
For CN(C)C/C=C/C(=O)Nc1ccc(C(=O)N2CCC[C@@H](Nc3ncc(Cl)c(-c4c[nH]c5ccccc45)n3)C2)cc1 [THZ-531], the “proliferation inhibitory activity on normal and tumor cells” value [9] was “indiscriminate proliferation inhibitory activity on both normal and tumor cells”.
